This experiment deals with MRC-5 cells. As to the kind of experiment: Cell migration, invasion and wound-healing assay. The class given is cell-based, human. Particulars: MRC-5 cells stimulated by TGF-β1, peptide 50 µM, 24 h transwell, 48 h wound closure, n = 3. As for the experimental part: For wound healing, cell monolayers were scratched with pipette tip. Cells were incubated with or without 10 ng ml^−1 recombinant human TGF‐β1. Ac‐GFFY‐A2 (50 µM) or A2 (50 µM) was added to the medium 1 h behind to TGF‐β1 stimulation. Images were captured at 0 and 48 h after scratching, and the lesion area was measured with Image J software. Cell invasion assay was performed using transwell chambers (8‐µm pore size, Millipore). Chambers were pre‐coated with Matrigel (30 µg per well, BD). Cells were seeded into the chamber with MEM supplemented with 0.1% FBS, and the lower well was added MEM supplemented with 20% FBS. After incubated for 24 h, non‐invaded cells on the upside were removed with cotton swap, and invaded cells were fixed with 4% paraformaldehyde, stained with 0.5% crystal violet, and then photographed under a microscope. The crystal violet stain was eluted in alcohol and quantified at OD540 nm. […]
MRC-5 cells were seeded on a 6-well plate at a density of 6×10^4 cells per well then cultured for 12 hours to adhere the walls. […] The cells were collected and centrifuged, finally the cellular uptake was measured by flow cytometry. […]
Images were captured at 0 h and 48 h after scratching, and the lesion area was measured with Image J software. […] The crystal violet stain was eluted in alcohol and quantified at OD540 nm. […]

Take Ac-GFFYGGWLTRLLQTK-OH [Ac-GFFY-A2]: the “rate of migration and invasion” value was “decline in the rate of migration and invasion”.

These data come from article PMC11267363, “Supramolecular Nanofibers Ameliorate Bleomycin‐Induced Pulmonary Fibrosis by Restoring Autophagy” (Advanced Science, 2024).
